Measurements reported in BindingDB's records for doi:10.1016/j.bmcl.2009.01.088 (Abbott Laboratories, 2009).

Target: Mitogen-activated protein kinase kinase kinase 8 (Homo sapiens, UniProt P41279)
Experiment: COT HTRF Assay
Conditions: pH 7.5; 22 °C
Procedure: The COT direct HTRF assay was carried out using biotin-MEK1 as a substrate. The reaction was carried out in black 96 half-well plates. At designated time points, EDTA was added to quench the reaction. Detection reagents were then added to each well to make anti-phospho-MEK1-Eu antibody and SAXL. The plates were incubated, and then read using the RUBYstar HTRF reader.

Sequence of Mitogen-activated protein kinase kinase kinase 8 (P41279 whole entry): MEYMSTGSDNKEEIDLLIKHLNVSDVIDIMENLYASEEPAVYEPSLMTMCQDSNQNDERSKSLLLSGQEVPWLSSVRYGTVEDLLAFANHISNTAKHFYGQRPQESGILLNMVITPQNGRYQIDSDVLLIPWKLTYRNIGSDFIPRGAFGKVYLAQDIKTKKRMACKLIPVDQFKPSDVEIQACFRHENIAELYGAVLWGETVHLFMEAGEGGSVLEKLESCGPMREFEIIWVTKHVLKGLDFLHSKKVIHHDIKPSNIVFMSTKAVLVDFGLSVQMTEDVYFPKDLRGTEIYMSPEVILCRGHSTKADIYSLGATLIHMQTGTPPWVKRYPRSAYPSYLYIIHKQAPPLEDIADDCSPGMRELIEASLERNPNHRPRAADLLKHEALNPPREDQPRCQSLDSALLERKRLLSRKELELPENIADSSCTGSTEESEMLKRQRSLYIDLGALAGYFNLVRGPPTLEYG

## O=C(O)c1cc2c(Oc3ccc(I)cc3)cncc2s1
  IC50: 1 µM
